Test results from US7951997B2, “Reversible male sterility in transgenic plants by expression of cytokinin oxidase” (Monsanto Technology LLC, priority 2001, dated 2011).

Test system: male-sterile F1 transgenic plants (CKX1)
Test: Fertility restoration: tassel fertility rating after TDZ and kinetin applications
Assay type: in vivo, corn
Design: key: 0: No or very little floral development; x: Advanced floral development observed in some areas of tassels; xx: Increased areas of advanced floral development and anthersis observed in some flowers
Conditions: 0.25% Sylgard 309
Protocol: Two commercially registered chemicals were tested in fertility restoration experiments. Kinetin is a synthetic cytokinin that is not oxidized by CKX1 and TDZ is a known cytokinin oxidase inhibitor. The F1 seeds from the crosses between wild-type plants and several male-sterile R0 events were planted. NPTII ELISA positive plants were identified as the male-sterile transgenic plants among F1 segregating populations by enzyme-linked immunosorbent assays (ELISA, Example 3) performed on leaf samples collected at the seedling stage of all plants. Identified plants were treated at the V4, V7 and V10 stages. The application rates for each plant were 0, 10, 20, 30, and 100 mg of kinetin with or without 3 mg of TDZ in the presence of 0.25% of Sylgard 309 surfactant (Willbur-Ellis, Fresno, Calif.). One to three plants were tested at a particular rate combination.
The NPTII ELISA tests were thus used to select male sterile F1 transgenic plants for chemical treatments. […] These chemical application conditions were not sufficient to produce fully fertile plants. The degree of floral development restoration varied and was limited to older tissues of the tassel. […] Table 3 details tassel fertility rating of the restoration study.
Two to three transgenic F1 plants were used in each treatment group. Plants were either treated repeatedly in three different rates at three V4, V7 and V10 developmental stages or once in a higher rate at V7 developmental stage. Rates are indicated by mg/plant of TDZ and kinetin, respectively, in the presence of 0.25% of Sylgard 309 surfactant. The fertility rating was based on the visual observation. 0, No or very little floral development; x, Advanced floral development observed in some areas of tassels; xx, Increased areas of advanced floral development and anthersis observed in some flowers.

Measured: tassel fertility rating

c1coc(CNc2ncnc3[nH]cnc23)c1 [kinetin]
0: line 16400, TDZ 0, kinetin 20 mg/plant, applications at V4 + V7 + V10 | line 16400, TDZ 0, kinetin 100 mg/plant, application at V7 | line 16409, TDZ 0, kinetin 20 mg/plant, applications at V4 + V7 + V10 | line 16409, TDZ 0, kinetin 100 mg/plant, application at V7 | line 16802, TDZ 0, kinetin 20 mg/plant, applications at V4 + V7 + V10 | line 16802, TDZ 0, kinetin 100 mg/plant, application at V7 | line 16825, TDZ 0, kinetin 20 mg/plant, applications at V4 + V7 + V10 | line 16825, TDZ 0, kinetin 100 mg/plant, application at V7 | line 16832, TDZ 0, kinetin 20 mg/plant, applications at V4 + V7 + V10 | line 16832, TDZ 0, kinetin 100 mg/plant, application at V7
